Source: patent US20070213291A1, “Therapeutically useful synthetic oligonucleotides” (priority 1999, published 2007)

Key:
Format in all cases: cell-based
rhesus monkey PBMCs = experiment: Cytokine production by rhesus monkey PBMC (ELISA); details: PBMC of 4 healthy rhesus monkeys, 100 μg/ml, 48 h
Description: (§1) Unless stated otherwise, 1×10^6 cells were incubated with 100 μg/ml of each of the sequences tested for 48 h at 37° C. in 5% CO2. Production of cytokines IL-6, IL-10, IL-12, IL-1beta and TNF-alpha was determined in pg/ml in 100 μl of culture supernatant using the appropriate commercial ELISA (BioSource, Camarillo Calif.). The IL-12 ELISA measures both IL-12 p70 complex and free p40 subunit. Results are expressed as the “fold” (×) increase in cytokine production by treated cells compared to control cells.
PBMCs were isolated from 4 healthy rhesus monkeys as in Example 35. PBMCs were incubated with 6 base GT, AGT, CGT, AG, CG ands GG sequences and production of the cytokines IL-6, IL-12 and TNF-alpha was determined (Table 42).

chimpanzee PBMCs = experiment: Cytokine production by chimpanzee PBMC (ELISA); details: PBMC of 4 healthy chimpanzees, 100 μg/ml, 48 h
Description: as §1
PBMCs were isolated from 4 healthy chimpanzees as in Example 35. Chimpanzee PBMCs were incubated with 6 base GT, AGT, CGT, AG, CG and GG sequences and production of the cytokines IL-10, IL-12 and TNF-alpha was determined (Table 41).

[1] = test system: Jurkat human leukemia T cells; experiment: Inhibition of Jurkat human leukemia T cell proliferation (MTT reduction); details: for % INHIBITION of Jurkat proliferation at suboptimal concentration: 5.0 μg/ml of each 6 base sequence, alone or two together; for % INHIBITION of Jurkat human leukemia T cell proliferation: 100 μg/ml sequence, 48 h, 2.5×10^5 cells/ml
Description: Cells were seeded in 6 (1 ml/well), 24 (0.5 ml/well) or 96 (0.1 ml/well) well flat-bottom microplates and were maintained at 37° C. in a 5% CO2 atmosphere. Unless stated otherwise, 2.5×10^5 cells/ml were incubated with 0 μg/ml (control) and 100 μg/ml (treated) of 2 to 45 base sequences containing A, C, G and T for 48 h.
MTT was measured at a wavelength of 570 nm using a multiplate spectrophotometer reader (ELX800, Bio-TEK Instruments Inc., Winooski, Vt.).
Jurkat human leukemia T cells are an atypical multi-drug resistant human suspension tumor cell model.

[2] = test system: THP-1 human acute monocytic leukemia cells; experiment: Cytokine production by THP-1 cells (ELISA); details: THP-1, 1×10^6 cells, 100 μg/ml, 48 h; for ↑ IL-12 (fold increase treated vs control cells): p70 complex and free p40
Description: as §1
THP-1 human acute monocytic leukemia cells were incubated with 2, 3, 6, 9, 12, 14, 15 and 18 base GT sequences and production of the cyotkine IL-6 was determined (Table 35).
THP-1 human acute monocytic leukemia cells were incubated with 6 base GT, AG, CG, GG, AGT and CGT sequences and production of the cytokines IL-12 and IL-6 was determined (Table 36).
THP-1 human acute monocytic leukemia cells were incubated with 6 base GT sequences, having either an oxygen (phosphodiester) or a sulfur (phosphorothioate) as the nonbridging atom on the phosphate groups and production of the cytokine IL-12 was determined (Table 39).
THP-1 human acute monocytic leukemia cells were incubated with 6 base GT SEQ ID NO:25, having either an oxygen (phosphodiester) or a sulfur (phosphorothioate) as the nonbridging atom on the phosphate groups and production of the cytokine IL-12 was determined (Table 40).

[3] = test system: human peripheral blood mononuclear cells; experiment: Cytokine production by human PBMC (ELISA); details: PBMC of 7 healthy humans, 100 μg/ml, 48 h
Description: as §1
Peripheral blood mononuclear cells (hereinafter, “PBMCs”) were isolated from 7 healthy humans by Ficoll-Hypaque (Amersham Pharmacia Biotech, Baie d'Urfée, Québec, Canada) by density gradient centrifugation of whole blood. PBMCs were incubated with 6 base GT, AGT, CGT, AG, CG and GG sequences and production of the cytokines IL-1beta, IL-6, IL-10 and IL-12 were determined.

[4] = test system: Jurkat human leukemia T cells; experiment: Cell cycle stage in Jurkat cells (propidium iodide flow cytometry); details: Jurkat, 24 h, 100 μg/ml
Description: Cell cycle stage was determined using a […]™ PLUS DNA commercial kit (Becton Dickinson). Briefly, nuclei from cells were obtained by dissolving the cell membrane in a nonionic detergent, eliminating the cell cytoskeleton and nuclear proteins with trypsin, digesting the cellular RNA with RNase and stabilizing the nuclear chromatin with spermine. Propidium iodide was added to the cell nuclei and their fluorescence was analyzed in a flow cytometer equipped with electronic doublet discrimination capability (FACSCalibur, Becton Dickinson, San Jose, Calif.). Accumulation of cells in G0/G1, early S (SE), mid S (SM), late S (SL) or G2/M phases of the cell cycle was analyzed using MODFIT LT software (Verity Software House Inc., Topsham, Mass.).
Exponentially growing Jurkat human leukemia T cells (Table 28) and MCF-7 human breast cancer cells (5×10^5 cells/ml) (Table 29) were incubated for 24 h with 2, 6, 15, 18, 27 and 45 base sequences containing A, C, G and T. The cells were collected and centrifuged and cell cycle stage was determined.
Jurkat human cell leukemia T cells (1×10^6 cells/ml) were incubated for 24 h with 6 base GT SEQ ID NO:25, conplementary 6 base AC SEQ ID NO:79 and 6 base GT SEQ ID NO:25+6 base AC SEQ ID NO:79. GT SEQ ID NO:25 and AC SEQ ID NO:79 were hybridized by mixing the oligonucleotides (1:1) and heating for 10 minutes at 65° C. As controls, GT SEQ ID NO:25 and AC SEQ ID NO:79 were heated for 10 minutes at 65° C. (Table 30).

Sequence	IL-10 fold increase: mean +/− SD (rhesus monkey PBMCs)	IL-12 fold increase: mean +/− SD (rhesus monkey PBMCs)	TNF-alpha fold increase: mean +/− SD (rhesus monkey PBMCs)	IL-10 fold increase: mean +/− SD (chimpanzee PBMCs)	IL-12 fold increase: mean +/− SD (chimpanzee PBMCs)	TNF-alpha fold increase: mean +/− SD (chimpanzee PBMCs)	% INHIBITION of Jurkat proliferation at suboptimal concentration [1] [%]	% INHIBITION of Jurkat human leukemia T cell proliferation [1] [%]	↑ IL-6 (fold increase treated vs control cells) [2] [x]	↑ IL-12 (fold increase treated vs control cells) [2] [x]	IL-1 beta fold increase: mean +/− SD [3]	IL-6 fold increase: mean +/− SD [3]	IL-10 fold increase: mean +/− SD [3]	IL-12 fold increase: mean +/− SD [3]	% of cells in phase: G0/G1 [4] [%]	% of cells in phase: G2/M [4] [%]	% of cells in phase: SE [4] [%]	% of cells in phase: SL [4] [%]	% of cells in phase: SM [4] [%]	Arrest (cell cycle) [4]
TGGTTG [SEQ ID NO:29]	1.1 +/− 0.2 fold increase	11.1 +/− 4.2 fold increase	16.5 +/− 2.7 fold increase	3.1 +/− 2.0 fold increase	13.6 +/− 8.8 fold increase	12.4 +/− 7.3 fold increase	−1	42	10.5	4.1	1.7 +/− 1.0 fold increase	9.3 +/− 12.1 fold increase	1.0 +/− 0.1 fold increase	3.3 +/− 4.2 fold increase						
GTGTGTGTGTGT [SEQ ID NO:14]								51	1.3		1.1 +/− 0.2 fold increase	2.0 +/− 1.5 fold increase	1.0 +/− 0.1 fold increase	2.0 +/− 1.1 fold increase						
ATGTAT (unmodified DNA) [SEQ ID NO:30]	1.9 +/− 1.4 fold increase	6.0 +/− 1.9 fold increase	6.9 +/− 4.7 fold increase	1.4 +/− 0.4 fold increase	10.7 +/− 7.0 fold increase	5.9 +/− 3.3 fold increase		16	9.8	4.8	1.1 +/− 0.2 fold increase	4.6 +/− 4.4 fold increase	1.0 +/− 0.1 fold increase	1.3 +/− 0.2 fold increase						
GGTTGG [SEQ ID NO:41]	1.9 +/− 1.5 fold increase	11.5 +/− 5.9 fold increase	14.1 +/− 8.2 fold increase	9.1 +/− 7.7 fold increase	15.3 +/− 10.0 fold increase	14.1 +/− 7.3 fold increase	4	43	16.0	3.3	3.2 +/− 3.0 fold increase	7.8 +/− 12.8 fold increase	1.0 +/− 0.1 fold increase	4.9 +/− 8.6 fold increase						
AGGTGA [SEQ ID NO:31]								10	4.9	1.9					35.2	17.1	29.1	8.2	10.4	Mid SE
TGTGTGTGTGTG [SEQ ID NO:13]								49	5.7		2.4 +/− 1.9 fold increase	12.1 +/− 6.5 fold increase	1.2 +/− 0.4 fold increase	4.4 +/− 5.3 fold increase						
TCGTTC [SEQ ID NO:37]	1.1 +/− 0.2 fold increase	10.0 +/− 3.8 fold increase	14.7 +/− 3.1 fold increase	3.4 +/− 2.6 fold increase	14.1 +/− 10.0 fold increase	11.4 +/− 6.4 fold increase		20	12.9	2.2	1.2 +/− 0.4 fold increase	7.5 +/− 9.8 fold increase	1.0 +/− 0.1 fold increase	1.4 +/− 1.1 fold increase						
CTGTCT [SEQ ID NO:36]	1.0 +/− 0.1 fold increase	10.7 +/− 4.6 fold increase	15.3 +/− 3.6 fold increase	3.0 +/− 2.1 fold increase	13.4 +/− 8.9 fold increase	12.4 +/− 6.3 fold increase		19	15.9	2.0	1.2 +/− 0.3 fold increase	5.3 +/− 3.6 fold increase	1.0 +/− 0.1 fold increase	1.2 +/− 0.3 fold increase						
